In patent US20090240058A1, “Activator for Peroxisome Proliferator-Activating Receptor Delta” (priority 2005, published 2009):

Columns and labels:
hPPAR α (LBD) = target: T1, hPPAR α (LBD) (Homo sapiens, UniProt Q07869); test: GAL4-hPPAR α (LBD) luciferase reporter transactivation in CV-1 cells; format: cell-based; parameters: key: IA: inactive; conditions: relative to 100% of compound of Example 2 of Patent Publication 4 at 10^−6 M
T1 construct: A receptor expression plasmid (pSG5-GAL4-hPPAR α or γ or δ (LBD)); GAL4 (fusion partner); expressed in transfected cells; host or cells: CV-1 cells (ATCC)
T1 sequence (Q07869 239-466 limits assumed): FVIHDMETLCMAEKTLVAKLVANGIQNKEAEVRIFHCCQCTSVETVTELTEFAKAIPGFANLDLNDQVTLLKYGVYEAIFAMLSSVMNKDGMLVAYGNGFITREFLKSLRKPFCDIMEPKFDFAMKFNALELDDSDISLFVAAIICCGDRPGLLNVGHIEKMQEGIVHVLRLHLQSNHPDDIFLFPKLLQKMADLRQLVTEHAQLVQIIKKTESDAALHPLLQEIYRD
Procedure: (§1) A receptor expression plasmid (pSG5-GAL4-hPPAR α or γ or δ (LBD)), a luciferase expression plasmid (pUC8-MH100x4-TK-Luc) and β-galactosidase expression plasmid (pCMX-β-GAL) (Kliewer, S. A., et. al., (1992) Nature, 358:771-774) are transfected into CV-1 cells (ATCC). After gene transfer utilizing a lipofection reagent DMRIE-C or Lipofectamin 2000 (Invitrogen), it is incubated for 42 hours in the presence of the test compound. Then, the luciferase activity and β-GAL activity are measured on the soluble cells. The luciferase activity is calibrated by the β-GAL activity. A relative ligand activity is calculated for each of the PPARα, γ and δ under the following conditions: a relative activity of PPAR α is calculated in consideration of a luciferase activity (assigned to 100%) of cells treated with the compound described in Example 2 of the aforementioned Patent Publication 4 (PPARα-selective agonist); a relative activity of PPAR γ is calculated in consideration of a luciferase activity (assigned to 100%) cells treated with Rosiglitazone; and a relative activity of PPAR δ is calculated in consideration of a luciferase activity (assigned to 100%) of cells treated with GW-501516. See the below-described Examples 22 and 23.
(§2) The PPARδ activating effects of test compounds (compounds of Examples) were measured by the following method:
as §1, with “(pUC8-MH100x-4-TK-Luc)” for “(pUC8-MH100x4-TK-Luc)”, “approx. 40” for “42”, “PPAR α,” for “PPARα,”, “GW-501516.” for “GW-501516. See the below-described Examples 22 and 23.”
(§3) The experimental results Table 28 were obtained by procedures similar to the procedures for pharmacological experimental described in Example 22.

hPPAR δ (LBD) = target: T2, hPPAR δ (LBD) (Homo sapiens, UniProt Q03181); test: GAL4-hPPAR δ (LBD) luciferase reporter transactivation in CV-1 cells; format: cell-based; conditions: relative to 100% of GW-501516 at 10^−7 M
T2 construct: A receptor expression plasmid (pSG5-GAL4-hPPAR α or γ or δ (LBD)); GAL4 (fusion partner); expressed in transfected cells; host or cells: CV-1 cells (ATCC)
T2 sequence (Q03181 211-439 limits assumed): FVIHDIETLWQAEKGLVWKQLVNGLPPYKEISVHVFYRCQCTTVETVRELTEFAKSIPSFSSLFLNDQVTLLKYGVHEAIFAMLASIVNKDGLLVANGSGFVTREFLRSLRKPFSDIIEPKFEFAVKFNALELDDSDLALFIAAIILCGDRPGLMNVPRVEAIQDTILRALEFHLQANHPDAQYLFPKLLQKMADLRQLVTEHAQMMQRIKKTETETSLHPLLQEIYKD
Procedure: For determining PPARδ activating effect of the compounds according to the invention, PPARδ activating effects of test compounds (compounds of Examples) were measured by the following method:
as §1, §2
as §1, with “(pUC8-MH100x-4-TK-Luc)” for “(pUC8-MH100x4-TK-Luc)”, “approx. 40” for “42”, “PPAR α,” for “PPARα,”, “GW-501516.” for “GW-501516. See the below-described Examples 22 and 23.”
as §3

hPPAR γ (LBD) = target: T3, hPPAR γ (LBD) (Homo sapiens, UniProt P37231); test: GAL4-hPPAR γ (LBD) luciferase reporter transactivation in CV-1 cells; format: cell-based; parameters: key: IA: inactive; conditions: relative to 100% of Rosiglitazone at 10^−5 M
T3 construct: A receptor expression plasmid (pSG5-GAL4-hPPAR α or γ or δ (LBD)); GAL4 (fusion partner); expressed in transfected cells; host or cells: CV-1 cells (ATCC)
T3 sequence (P37231 238-503 limits assumed): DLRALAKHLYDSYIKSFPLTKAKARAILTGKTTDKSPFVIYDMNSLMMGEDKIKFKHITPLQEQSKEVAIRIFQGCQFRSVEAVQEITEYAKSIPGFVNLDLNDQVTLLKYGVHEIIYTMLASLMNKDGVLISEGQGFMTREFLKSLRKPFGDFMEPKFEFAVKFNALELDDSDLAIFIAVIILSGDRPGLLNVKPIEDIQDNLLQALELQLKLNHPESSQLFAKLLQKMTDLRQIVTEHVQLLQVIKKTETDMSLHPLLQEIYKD
Procedure: as §1, §2
as §1, with “(pUC8-MH100x-4-TK-Luc)” for “(pUC8-MH100x4-TK-Luc)”, “approx. 40” for “42”, “PPAR α,” for “PPARα,”, “GW-501516.” for “GW-501516. See the below-described Examples 22 and 23.”
as §3

[1] = test compound 10^−7 M (Examples 5, 8 and 10)
[2] = test compound 10^−7 M (Examples 8 and 10)
[3] = Table 28, test compound 10^−6 M

Compound	PPAR activity (%) α (hPPAR α (LBD); test compound 10^−6 M)	PPAR activity (%) δ (hPPAR δ (LBD); test compound 10^−6 M) [%]	PPAR activity (%) γ (hPPAR γ (LBD); test compound 10^−6 M)	PPAR activity (%) δ (hPPAR δ (LBD); [1]) [%]	melting point [°C]	PPAR activity (%) α (hPPAR α (LBD); [2]) [%]	PPAR activity (%) α (hPPAR α (LBD); [3])	PPAR activity (%) δ (hPPAR δ (LBD); [3]) [%]	PPAR activity (%) γ (hPPAR γ (LBD); [3])
Cc1cc(C(=O)CCc2cn(-c3ccc(C(F)(F)F)cc3)nc2C(C)C)ccc1OC(C)(C)C(=O)O [Example 1, 2-[4-[3-[3-Isopropyl-1-(4-trifluoromethylphenyl)-1H-pyrazol-4-yl]propionyl]-2-methylphenoxy]-2-methylpropionic acid]	62%	87	7%						
Cc1cc(C(=O)CCc2cn(-c3ccc(C(F)(F)F)cc3)nc2C(C)C)ccc1OCC(=O)O [Example 2, 4-[3-[3-Isopropyl-1-(4-trifluoromethylphenyl)-1H-pyrazol-4-yl]propionyl]-2-methylphenoxyacetic acid]	IA	76	IA						
Cc1ccc(-n2cc(CCC(=O)c3ccc(OC(C)(C)C(=O)O)c(C)c3)c(C(C)C)n2)nc1 [Example 3, 2-[4-[3-[3-Isopropyl-1-(5-methylpyridin-2-yl)-1H-pyrazol-4-yl]propionyl]-2-methylphenoxy]-2-methylpropionic acid]	131%	72	30%						
Cc1cc(C(=O)CCc2cc(-c3ccc(C(F)(F)F)cc3)nn2C(C)C)ccc1OC(C)(C)C(=O)O [Example 5, 2-[4-[3-[1-Isopropyl-3-(4-trifluoromethylphenyl)-1H-pyrazol-5-yl]propionyl]-2-methylphenoxy]-2-methylpropionic acid]	109%		15%	93					
Cc1cc(C(=O)CCc2cc(-c3ccc(C(F)(F)F)cc3)nn2C(C)C)ccc1OCC(=O)O [Example 6, [4-[3-[1-Isopropyl-3-(4-trifluoromethylphenyl)-1H-pyrazol-5-yl]propionyl]-2-methylphenoxy]acetic acid]	IA	86	IA		160 to 163				
C=C(CCc1cc(-c2ccc(C(F)(F)F)cc2)nn1C(C)C)c1ccc(OC(C)(C)C(=O)O)c(C)c1 [Example 7, 2-[4-[1-[2-[1-Isopropyl-3-(4-trifluoromethylphenyl)-1H-pyrazol-5-yl]ethyl]vinyl]-2-methylphenoxy]-2-methylpropionic acid]	84%	72	38%						
Cc1cc(C(C)CCc2cc(-c3ccc(C(F)(F)F)cc3)nn2C(C)C)ccc1OC(C)(C)C(=O)O (stereo not drawn) [Example 8, 2-[4-[3-[1-Isopropyl-3-(4-trifluoromethylphenyl)-1H-pyrazol-5-yl]-1-methylpropyl]-2-methylphenoxy]-2-methylpropionic acid]			61%	45		89			
Cc1cc(C(=O)CCc2cc(-c3ccc(C(F)(F)F)cc3)nn2C(C)C)ccc1OC(C)C(=O)O (stereo not drawn) [Example 9, 2-[4-[3-[1-Isopropyl-3-(4-trifluoromethylphenyl)-1H-pyrazol-5-yl]propionyl]-2-methylphenoxy]propionic acid]	73%	59	29%						
CCCCCCn1nc(-c2ccc(C(F)(F)F)cc2)cc1CCC(=O)c1ccc(OC(C)(C)C(=O)O)c(C)c1 [Example 10, 2-[4-[3-[1-Hexyl-3-(4-trifluoromethylphenyl)-1H-pyrazol-5-yl]propionyl]-2-methylphenoxy]-2-methylpropionic acid]			54%	53		77			
CCCCCCn1nc(-c2ccc(C(F)(F)F)cc2)cc1CCC(=O)c1ccc(OCC(=O)O)c(C)c1 [Example 11, [4-[3-[1-Hexyl-3-(4-trifluoromethylphenyl)-1H-pyrazol-5-yl]propionyl]-2-methylphenoxy]acetic acid]	IA	81	IA		118 to 123				
Cc1cc(C(=O)CCc2sc(-c3ccc(C(F)(F)F)cc3)cc2C)ccc1OC(C)(C)C(=O)O [Example 12, 2-Methyl-2-[2-methyl-4-[3-[3-methyl-5-(4-trifluoromethylphenyl)thiophen-2-yl]propionyl]phenoxy]-propionic acid]	51%	94	29%						
Cc1cc(C(=O)CCc2sc(-c3ccc(C(F)(F)F)cc3)cc2C)ccc1OCC(=O)O [Example 13, [2-Methyl-4-[3-[3-methyl-5-(4-trifluoromethylphenyl)thiophen-2-yl]propionyl]phenoxy]acetic acid]	IA	82	IA						
CCCCCCn1nc(-c2ccc(C)cc2)cc1CCC(=O)c1ccc(OC(C)(C)C(=O)O)c(C)c1 [Example 14, 2-[4-[3-[1-Hexyl-3-(4-methylphenyl)-1H-pyrazol-5-yl]propionyl]-2-methylphenoxy]-2-methylpropionic acid]							123%	94	48%
Cc1cc(C(=O)CCc2sc(-c3ccc(C(F)(F)F)cc3)cc2C(C)C)ccc1OC(C)(C)C(=O)O [Example 15, 2-[4-[3-[3-Isopropyl-5-(4-trifluoromethylphenyl)thiophen-2-yl]propionyl]-2-methylphenoxy]-2-methylpropionic acid]							99%	85	11%
Cc1cc(C(=O)CCc2sc(-c3ccc(C(F)(F)F)cc3)cc2C(C)C)ccc1OCC(=O)O [Example 16, [4-[3-[3-Isopropyl-5-(4-trifluoromethylphenyl)thiophen-2-yl]propionyl]-2-methylphenoxy]acetic acid]					139 to 143		inactive	92	inactive
CCCCCCc1cc(-c2ccc(C)cc2)sc1CCC(=O)c1ccc(OC(C)(C)C(=O)O)c(C)c1 [Example 17, 2-[4-[3-[3-Hexyl-5-(4-methylphenyl)thiophen-2-yl]propionyl]-2-methylphenoxy]-2-methylpropionic acid]							109%	76	35%
